# Measured values taken from the pKa sets of Baltruschat and Czodrowski (2020).
Structure (SMILES),pKa (basic group),pKa (acidic group)
N=C(N)N,13.1,
Cc1cc(C(C)(C)C)cc(C)c1C(=O)O,,3.44
Cc1c(Cn2cc[nH+]c2)n(C)c2ccc(C(=O)O)cc12,,4.08
O=CC(=O)O,,1.26
C=CCC(C)(CN(CC)CC)OC(C)=O (stereo not drawn),9.85,
CSC(=S)NCC(=O)O,,3.19
OCc1ccc(O)cc1,,9.82
Cc1ccc(C(=O)O)cc1,,4.37
Cc1cc(O)nn1-c1ccccc1,,12.1
O=C(O)Cc1ccc(Cl)s1,,3.89
[O-]C(O)=C1c2ccccc2-c2ccccc21,,9.61
CCCCCCCCCCCCCCCCN(CCCCCCCCCCCCCCCC)C(=O)[C@H](C)NC(=O)[C@H](Cc1c[nH]cn1)NC(=O)CCCCC[N+](C)(C)C.[Br-],7.2,
COC(=O)CCS,,9.33
C#CC(=O)O,,1.89
NCCC#CC#CCCC(=O)[O-],9.27,
C[n+]1cccc(S)c1,,2.27
Nc1cc[nH+]c([S-])n1,3.32,
N#Cc1ccc(CC(C#N)C#N)cc1,,11
O=[N+]([O-])c1n[nH]c(-n2cncn2)n1,,2
C[C@@H]([C@H](O)c1ccccc1)N(C)C,9.22,
O=C([O-])CN(CC(=O)[O-])Cc1nc2ccccc2[nH]1,6.87,

Structure (SMILES),pKa (basic group),pKa (acidic group)
Cc1ccccc1[Se]CC(=O)O,,3.79
O=c1cccc(O)cc1O,,5.76
Cc1ccccc1S(=O)O,,1.47
O=C(O)/C=C/SC1CCCCC1,,4.7
CC(C)(S)[C@@H](C(=O)O)n1cc[nH+]c1Cc1ccccc1,,2.81
C=CC(O)OCC(C)O (stereo not drawn),,5.5
C#CCN,8.19,
O=C1NC(=O)C(Cc2ccccc2)N1 (stereo not drawn),,9.03
CN1CCOCC1,7.66,
COc1nc(-n2nc(C)cc2O)nc(C)c1C,,7.64
CC1CCCC(C(=O)[O-])N1 (stereo not drawn),10.4,
C[NH+](C)Cc1cc(C(C)(C)C)cc(C[NH+](C)C)c1O,,6.3
CCN(CC)C(=S)NC(=O)c1ccc(Cl)cc1,,8
C[NH+](C)CCNCCN,9.12,
COc1ccc2c(c1)CCN2,6.1,
CCNc1cc[nH+]c(S)n1,,3.1
Cc1ccc(CNCCN)cc1,9.41,
CN(C)C1CCCCC1,10.5,
CCN1CCCCC1,10.7,
CC(C)(C)c1cccnc1,5.82,
CNCCNCCN,10.2,

Structure (SMILES),pKa (basic group),pKa (acidic group)
O=C(Nc1nnc(-c2ccccc2)s1)c1ccccc1,,6.8
Cc1c[nH]cn1,7.51,
O=C(O)C1CC1(Cl)Cl (stereo not drawn),,3.51
CC(C)S(=O)(=O)n1c(N)nc2ccc(/C(=C/C(N)=O)c3cccc(F)c3)cc21,3.41,
CC(C)([NH3+])CN,6.79,
O=C(/C=N/O)CCl,,7.9
NC(c1ncc[nH]1)c1ncc[nH]1,6.49,
Cc1cccc(C)c1C(=O)O,,3.23
COc1c(C(=O)N[C@@H]2C[C@H]3CC[C@@H](C2)N3Cc2ccccc2)cccc1[N+](=O)[O-],8.61,
CC(=O)C(C(C)=O)C(C)C,,12.8
Nc1ccc(S(=O)(=O)Nc2nncs2)cc1,2.15,4.77
COc1cc(Br)cc(C(=O)N[C@@H]2C[C@H]3CC[C@@H](C2)N3Cc2ccccc2)c1OC,8.84,
Cc1ccccc1CN,9.23,
O=S(=O)(Cc1ccccc1)c1cnn[nH]1,,5.15
O=C(O)c1ccccc1I,,2.93
CC1CC2CCN1CC2 (stereo not drawn),11.3,
[O-][n+]1cccc(O)c1,,6.4
CN(C)c1ccc2cc3ccc([NH+](C)C)cc3[nH+]c2c1,-3.15,
CCC(C)[C@H](N)C(=O)[O-] (stereo partly drawn),9.62,
CCNc1ccc(C)cc1,5.72,
C/C(=N/c1ccccc1O)c1ccccc1O,5.14,9.23

Structure (SMILES),pKa (basic group),pKa (acidic group)
OCCN(CCO)c1ccccc1,4.11,
O=Cc1ccccc1B(O)O,,7.31
Nc1ccc(O)cc1O,5.7,9.3
CC[C@]12CCC[NH+]3CC[C@@]4(c5cccc(OC)c5N[C@H]4CC1)[C@@H]32,2.7,
O=C1CCC(=O)C1,,4.5
OCc1cc(-c2ccccc2)nnc1NCC[NH+]1CCOCC1,3.81,
FC(F)(F)c1nc2ncncc2[nH]1,1,5.12
Fc1ccc(S)cc1,,6.35
CC(=O)CC(N)=O,,10.4
C#CC(C)(C)Nc1ccccc1,4.26,
c1ccc(-c2ccccn2)nc1,4.42,
O=C(O)C1Cc2ccccc2O1 (stereo not drawn),,3.25
NCCC(=O)c1ccccc1,8.3,
CC(O)CN(CCCN1CCOCC1)CC(C)O (stereo not drawn),8.4,
Cc1cccc(Cl)c1/C(=N/CCCN(C)C)c1ccccc1,8.8,
O=C(CC(=O)c1ccccc1)Nc1cccc([N+](=O)[O-])c1,,9.54
Cc1cc2c(cc1N)Sc1cc([NH+](C)C)ccc1N2,4.81,
Cc1ccc(-c2cnc(-c3ccccc3)o2)cc1,0.91,
N#CCCNc1ccccc1,4.5,
CN(C)c1cccc(O)c1,,9.85
COc1ccccc(=O)c1O,,8
